Reference: PubChem BioAssay (NCI)
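1) Cells in 96-well plates. 2) Compound, 48 h, 5 concentrations. 3) Linear interpolation between surrounding doses. 4) Unreached endpoint = highest concentration. TGI: total growth inhibition.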

Tests used:
Test in all cases: NCI anticancer screen, dose series, 48 h
LOX IMVI melanoma = tested on: LOX IMVI melanoma
UO-31 renal = tested on: UO-31 renal
HOP-62 NSCLC = tested on: HOP-62 NSCLC
HOP-92 NSCLC = tested on: HOP-92 NSCLC
SNB-75 CNS = tested on: SNB-75 CNS
UACC-62 melanoma = tested on: UACC-62 melanoma
MDA-N = tested on: MDA-N
HCT-116 colon = tested on: HCT-116 colon
SF-539 CNS = tested on: SF-539 CNS
T-47D breast = tested on: T-47D breast
OVCAR-5 ovarian = tested on: OVCAR-5 ovarian
SW-620 colon = tested on: SW-620 colon
EKVX NSCLC = tested on: EKVX NSCLC
RPMI-8226 leukemia = tested on: RPMI-8226 leukemia
BT-549 breast = tested on: BT-549 breast
COLO 205 colon = tested on: COLO 205 colon
UACC-257 melanoma = tested on: UACC-257 melanoma
MDA-MB-231 breast = tested on: MDA-MB-231 breast
HCT-15 colon = tested on: HCT-15 colon
CAKI-1 renal = tested on: CAKI-1 renal
IGROV1 ovarian = tested on: IGROV1 ovarian
SNB-19 CNS = tested on: SNB-19 CNS
HL-60(TB) leukemia = tested on: HL-60(TB) leukemia
PC-3 prostate = tested on: PC-3 prostate
ACHN renal = tested on: ACHN renal
KM12 colon = tested on: KM12 colon
NCI-H23 lung = tested on: NCI-H23 lung
SF-295 CNS = tested on: SF-295 CNS
K-562 leukemia = tested on: K-562 leukemia
TK-10 renal = tested on: TK-10 renal
A549 NSCLC = tested on: A549 NSCLC
CCRF-CEM leukemia = tested on: CCRF-CEM leukemia
SK-MEL-2 melanoma = tested on: SK-MEL-2 melanoma
MCF7 breast = tested on: MCF7 breast
SF-268 CNS = tested on: SF-268 CNS
U251 CNS = tested on: U251 CNS
HS 578T breast = tested on: HS 578T breast
786-0 renal = tested on: 786-0 renal
OVCAR-8 ovarian = tested on: OVCAR-8 ovarian
MOLT-4 leukemia = tested on: MOLT-4 leukemia
SN12C renal = tested on: SN12C renal
NCI-H460 lung = tested on: NCI-H460 lung
DU-145 prostate = tested on: DU-145 prostate
SR leukemia = tested on: SR leukemia
HCC-2998 colon = tested on: HCC-2998 colon
SK-MEL-28 melanoma = tested on: SK-MEL-28 melanoma
RXF 393 renal = tested on: RXF 393 renal
OVCAR-4 ovarian = tested on: OVCAR-4 ovarian
MDA-MB-435 = tested on: MDA-MB-435
M14 melanoma = tested on: M14 melanoma
NCI/ADR-RES ovarian = tested on: NCI/ADR-RES ovarian
A498 renal = tested on: A498 renal
NCI-H226 lung = tested on: NCI-H226 lung
OVCAR-3 ovarian = tested on: OVCAR-3 ovarian
SK-OV-3 ovarian = tested on: SK-OV-3 ovarian
HT29 colon = tested on: HT29 colon
SK-MEL-5 melanoma = tested on: SK-MEL-5 melanoma

Compound: Cc1cn(CCCCCCOC(=O)NC(CCCN=C(N)N)C(=O)O)c(=O)[nH]c1=O (stereo unspecified)
- TGI (LOX IMVI melanoma): > 100 µM
- TGI (UO-31 renal): > 100 µM
- TGI (HOP-62 NSCLC): > 100 µM
- TGI (HOP-92 NSCLC): > 100 µM
- TGI (SNB-75 CNS): > 100 µM
- TGI (UACC-62 melanoma): > 100 µM
- TGI (MDA-N): > 100 µM
- TGI (HCT-116 colon): > 100 µM
- TGI (SF-539 CNS): > 100 µM
- TGI (T-47D breast): > 100 µM
- TGI (OVCAR-5 ovarian): > 100 µM
- TGI (SW-620 colon): > 100 µM
- TGI (EKVX NSCLC): > 100 µM
- TGI (RPMI-8226 leukemia): > 100 µM
- TGI (BT-549 breast): > 100 µM
- TGI (COLO 205 colon): > 100 µM
- TGI (UACC-257 melanoma): > 100 µM
- TGI (MDA-MB-231 breast): > 100 µM
- TGI (HCT-15 colon): > 100 µM
- TGI (CAKI-1 renal): > 100 µM
- TGI (IGROV1 ovarian): > 100 µM
- TGI (SNB-19 CNS): > 100 µM
- TGI (HL-60(TB) leukemia): > 100 µM
- TGI (PC-3 prostate): > 100 µM
- TGI (ACHN renal): > 100 µM
- TGI (KM12 colon): > 100 µM
- TGI (NCI-H23 lung): > 100 µM
- TGI (SF-295 CNS): > 100 µM
- TGI (K-562 leukemia): > 100 µM
- TGI (TK-10 renal): > 100 µM
- TGI (A549 NSCLC): > 100 µM
- TGI (CCRF-CEM leukemia): > 100 µM
- TGI (SK-MEL-2 melanoma): > 100 µM
- TGI (MCF7 breast): > 100 µM
- TGI (SF-268 CNS): > 100 µM
- TGI (U251 CNS): > 100 µM
- TGI (HS 578T breast): > 100 µM
- TGI (786-0 renal): > 100 µM
- TGI (OVCAR-8 ovarian): > 100 µM
- TGI (MOLT-4 leukemia): > 100 µM
- TGI (SN12C renal): > 100 µM
- TGI (NCI-H460 lung): > 100 µM
- TGI (DU-145 prostate): > 100 µM
- TGI (SR leukemia): > 100 µM
- TGI (HCC-2998 colon): > 100 µM
- TGI (SK-MEL-28 melanoma): > 100 µM
- TGI (RXF 393 renal): > 100 µM
- TGI (OVCAR-4 ovarian): > 100 µM
- TGI (MDA-MB-435): > 100 µM
- TGI (M14 melanoma): > 100 µM
- TGI (NCI/ADR-RES ovarian): > 100 µM
- TGI (A498 renal): > 100 µM
- TGI (NCI-H226 lung): > 100 µM
- TGI (OVCAR-3 ovarian): > 100 µM
- TGI (SK-OV-3 ovarian): > 100 µM
- TGI (HT29 colon): > 100 µM

Compound: CC1C2C=CC1C(c1c3ccc(=O)c(O)c-3oc3c(O)c(O)ccc13)C2C(=O)O (stereo unspecified)
- TGI (LOX IMVI melanoma): 49.1 µM
- TGI (UO-31 renal): > 100 µM
- TGI (HOP-62 NSCLC): > 100 µM
- TGI (HOP-92 NSCLC): > 100 µM
- TGI (UACC-62 melanoma): > 100 µM
- TGI (MDA-N): 45.9 µM
- TGI (HCT-116 colon): 69.7 µM
- TGI (T-47D breast): > 100 µM
- TGI (OVCAR-5 ovarian): > 100 µM
- TGI (SW-620 colon): > 100 µM
- TGI (EKVX NSCLC): > 100 µM
- TGI (RPMI-8226 leukemia): 59.5 µM
- TGI (BT-549 breast): > 100 µM
- TGI (COLO 205 colon): > 100 µM
- TGI (UACC-257 melanoma): > 100 µM
- TGI (MDA-MB-231 breast): > 100 µM
- TGI (HCT-15 colon): > 100 µM
- TGI (CAKI-1 renal): > 100 µM
- TGI (IGROV1 ovarian): > 100 µM
- TGI (SNB-19 CNS): > 100 µM
- TGI (HL-60(TB) leukemia): > 100 µM
- TGI (PC-3 prostate): > 100 µM
- TGI (ACHN renal): > 100 µM
- TGI (KM12 colon): > 100 µM
- TGI (NCI-H23 lung): > 100 µM
- TGI (SF-295 CNS): > 100 µM
- TGI (K-562 leukemia): 45.8 µM
- TGI (TK-10 renal): > 100 µM
- TGI (A549 NSCLC): > 100 µM
- TGI (SK-MEL-5 melanoma): > 100 µM
- TGI (CCRF-CEM leukemia): 7.38 µM
- TGI (SK-MEL-2 melanoma): > 100 µM
- TGI (MCF7 breast): 40.8 µM
- TGI (SF-268 CNS): > 100 µM
- TGI (U251 CNS): > 100 µM
- TGI (HS 578T breast): > 100 µM
- TGI (786-0 renal): > 100 µM
- TGI (OVCAR-8 ovarian): > 100 µM
- TGI (MOLT-4 leukemia): 56.4 µM
- TGI (SN12C renal): 51.1 µM
- TGI (NCI-H460 lung): > 100 µM
- TGI (DU-145 prostate): > 100 µM
- TGI (SR leukemia): > 100 µM
- TGI (HCC-2998 colon): > 100 µM
- TGI (SK-MEL-28 melanoma): > 100 µM
- TGI (RXF 393 renal): > 100 µM
- TGI (OVCAR-4 ovarian): > 100 µM
- TGI (MDA-MB-435): 36.2 µM
- TGI (M14 melanoma): > 100 µM
- TGI (NCI/ADR-RES ovarian): > 100 µM
- TGI (A498 renal): > 100 µM
- TGI (NCI-H226 lung): 86.5 µM
- TGI (OVCAR-3 ovarian): > 100 µM
- TGI (SK-OV-3 ovarian): > 100 µM
- TGI (HT29 colon): > 100 µM
